According to ChEMBL document CHEMBL5291721, “A preclinical secondary pharmacology resource illuminates target-adverse drug reaction associations of marketed drugs” (Nat Commun, 2023):

How the values were obtained:
[1] = target: 3',5'-cyclic-AMP phosphodiesterase 4D (Homo sapiens, UniProt Q08499); type: functional
[2] = target: Sodium-dependent noradrenaline transporter (Homo sapiens, UniProt P23975)
[3] = target: T1, 5-hydroxytryptamine receptor 2C (Homo sapiens, UniProt P28335)
T1 sequence (P28335 whole entry): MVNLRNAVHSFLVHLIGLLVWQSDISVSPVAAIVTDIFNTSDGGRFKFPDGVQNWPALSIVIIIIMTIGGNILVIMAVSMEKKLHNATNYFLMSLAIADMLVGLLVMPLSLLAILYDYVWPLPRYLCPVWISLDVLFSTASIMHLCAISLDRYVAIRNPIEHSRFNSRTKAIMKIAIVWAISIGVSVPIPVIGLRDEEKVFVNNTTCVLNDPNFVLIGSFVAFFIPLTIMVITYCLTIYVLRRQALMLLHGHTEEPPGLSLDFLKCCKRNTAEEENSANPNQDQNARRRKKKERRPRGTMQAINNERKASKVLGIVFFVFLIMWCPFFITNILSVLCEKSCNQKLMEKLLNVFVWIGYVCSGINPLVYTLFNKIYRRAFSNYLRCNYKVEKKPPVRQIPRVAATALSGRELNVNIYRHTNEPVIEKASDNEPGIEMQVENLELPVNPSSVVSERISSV

[4] = target: Melanocortin receptor 3 (Homo sapiens, UniProt P41968)
Melanocortin receptor 3, sequence (P41968 whole entry): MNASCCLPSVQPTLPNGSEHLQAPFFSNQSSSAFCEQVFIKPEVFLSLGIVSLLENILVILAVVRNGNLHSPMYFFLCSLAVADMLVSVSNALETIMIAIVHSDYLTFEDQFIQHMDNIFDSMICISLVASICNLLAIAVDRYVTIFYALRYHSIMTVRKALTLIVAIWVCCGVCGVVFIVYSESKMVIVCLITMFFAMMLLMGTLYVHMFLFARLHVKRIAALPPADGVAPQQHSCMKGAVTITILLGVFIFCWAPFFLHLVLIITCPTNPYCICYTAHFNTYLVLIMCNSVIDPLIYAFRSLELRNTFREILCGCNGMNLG

[5] = target: T2, Prostaglandin G/H synthase 1 (Rattus norvegicus, UniProt Q63921); type: functional
T2 sequence (Q63921 whole entry): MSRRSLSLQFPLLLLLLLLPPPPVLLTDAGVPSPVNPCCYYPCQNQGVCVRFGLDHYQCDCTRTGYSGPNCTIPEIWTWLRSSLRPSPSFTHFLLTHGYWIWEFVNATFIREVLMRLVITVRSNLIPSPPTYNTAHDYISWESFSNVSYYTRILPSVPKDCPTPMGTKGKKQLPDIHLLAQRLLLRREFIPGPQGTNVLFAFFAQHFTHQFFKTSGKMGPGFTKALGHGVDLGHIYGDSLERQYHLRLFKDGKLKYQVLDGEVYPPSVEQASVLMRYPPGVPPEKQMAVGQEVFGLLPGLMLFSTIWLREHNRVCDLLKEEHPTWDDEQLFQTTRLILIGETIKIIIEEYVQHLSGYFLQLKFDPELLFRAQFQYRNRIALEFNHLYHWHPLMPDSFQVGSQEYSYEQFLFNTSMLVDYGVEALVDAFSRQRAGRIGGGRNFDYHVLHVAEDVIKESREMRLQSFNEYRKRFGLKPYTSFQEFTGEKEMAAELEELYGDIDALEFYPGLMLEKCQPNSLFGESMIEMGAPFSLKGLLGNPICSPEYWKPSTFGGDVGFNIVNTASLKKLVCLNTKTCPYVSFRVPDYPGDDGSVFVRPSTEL

[6] = target: Growth hormone secretagogue receptor type 1 (Homo sapiens, UniProt Q92847)
Growth hormone secretagogue receptor type 1, sequence (Q92847 whole entry): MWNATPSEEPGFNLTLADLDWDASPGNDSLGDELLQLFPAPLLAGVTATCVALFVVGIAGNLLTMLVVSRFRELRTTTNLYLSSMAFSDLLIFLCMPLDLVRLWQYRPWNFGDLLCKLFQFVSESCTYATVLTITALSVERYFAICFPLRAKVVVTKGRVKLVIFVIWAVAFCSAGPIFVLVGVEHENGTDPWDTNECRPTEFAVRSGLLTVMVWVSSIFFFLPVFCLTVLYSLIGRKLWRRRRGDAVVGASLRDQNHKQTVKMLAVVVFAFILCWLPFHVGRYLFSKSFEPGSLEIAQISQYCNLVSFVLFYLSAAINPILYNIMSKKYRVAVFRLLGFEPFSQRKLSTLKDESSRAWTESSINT

[7] = target: Bile salt export pump (Homo sapiens, UniProt O95342); type: functional
Bile salt export pump, sequence (O95342 whole entry): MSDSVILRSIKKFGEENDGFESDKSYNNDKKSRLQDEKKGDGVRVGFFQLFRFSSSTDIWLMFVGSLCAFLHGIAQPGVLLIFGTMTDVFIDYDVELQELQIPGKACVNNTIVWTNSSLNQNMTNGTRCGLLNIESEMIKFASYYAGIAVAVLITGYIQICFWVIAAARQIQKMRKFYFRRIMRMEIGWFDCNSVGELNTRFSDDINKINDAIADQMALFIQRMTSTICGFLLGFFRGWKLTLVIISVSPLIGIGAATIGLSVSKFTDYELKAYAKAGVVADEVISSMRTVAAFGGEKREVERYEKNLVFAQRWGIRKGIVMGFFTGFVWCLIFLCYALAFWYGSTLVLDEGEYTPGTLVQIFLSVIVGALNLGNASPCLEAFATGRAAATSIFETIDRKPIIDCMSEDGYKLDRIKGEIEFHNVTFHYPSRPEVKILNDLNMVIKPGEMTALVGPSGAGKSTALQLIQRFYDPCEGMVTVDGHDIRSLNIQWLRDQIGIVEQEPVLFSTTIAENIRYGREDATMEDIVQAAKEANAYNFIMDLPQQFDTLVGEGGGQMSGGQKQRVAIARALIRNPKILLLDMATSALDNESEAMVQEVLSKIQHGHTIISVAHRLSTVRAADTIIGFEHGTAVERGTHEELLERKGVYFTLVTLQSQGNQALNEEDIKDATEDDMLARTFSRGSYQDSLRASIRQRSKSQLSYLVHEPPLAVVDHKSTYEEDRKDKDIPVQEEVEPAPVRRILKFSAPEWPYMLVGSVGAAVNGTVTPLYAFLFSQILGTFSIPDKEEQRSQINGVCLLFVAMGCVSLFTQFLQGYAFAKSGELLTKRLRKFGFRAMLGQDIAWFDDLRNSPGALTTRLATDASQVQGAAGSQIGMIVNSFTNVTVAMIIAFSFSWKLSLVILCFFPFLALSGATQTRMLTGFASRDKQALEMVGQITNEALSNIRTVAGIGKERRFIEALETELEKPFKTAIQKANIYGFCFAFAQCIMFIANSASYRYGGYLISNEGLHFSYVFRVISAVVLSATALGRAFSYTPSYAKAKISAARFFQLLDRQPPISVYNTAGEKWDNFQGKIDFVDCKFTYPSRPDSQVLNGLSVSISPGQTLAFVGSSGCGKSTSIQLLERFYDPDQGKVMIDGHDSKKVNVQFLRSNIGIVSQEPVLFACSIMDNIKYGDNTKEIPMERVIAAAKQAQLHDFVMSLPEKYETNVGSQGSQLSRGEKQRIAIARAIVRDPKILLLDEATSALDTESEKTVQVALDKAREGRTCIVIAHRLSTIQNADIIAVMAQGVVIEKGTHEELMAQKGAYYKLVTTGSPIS

[8] = target: T3, Alpha-2A adrenergic receptor (Homo sapiens, UniProt P08913); type: functional, cell-based
T3 sequence (P08913 whole entry): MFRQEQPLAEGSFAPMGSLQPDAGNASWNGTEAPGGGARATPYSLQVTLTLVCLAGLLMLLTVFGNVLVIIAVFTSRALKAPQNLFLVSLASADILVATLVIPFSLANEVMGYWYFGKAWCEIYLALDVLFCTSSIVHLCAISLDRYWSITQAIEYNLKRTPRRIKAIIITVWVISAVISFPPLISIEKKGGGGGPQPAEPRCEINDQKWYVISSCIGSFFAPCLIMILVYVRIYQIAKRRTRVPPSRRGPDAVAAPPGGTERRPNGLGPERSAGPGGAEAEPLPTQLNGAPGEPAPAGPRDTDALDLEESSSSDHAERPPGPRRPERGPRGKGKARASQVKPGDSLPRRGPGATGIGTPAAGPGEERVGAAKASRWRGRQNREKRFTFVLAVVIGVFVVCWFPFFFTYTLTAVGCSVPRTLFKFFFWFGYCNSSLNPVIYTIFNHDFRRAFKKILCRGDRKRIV

[9] = target: T4, Cholecystokinin receptor type A (Homo sapiens, UniProt P32238)
T4 sequence (P32238 whole entry): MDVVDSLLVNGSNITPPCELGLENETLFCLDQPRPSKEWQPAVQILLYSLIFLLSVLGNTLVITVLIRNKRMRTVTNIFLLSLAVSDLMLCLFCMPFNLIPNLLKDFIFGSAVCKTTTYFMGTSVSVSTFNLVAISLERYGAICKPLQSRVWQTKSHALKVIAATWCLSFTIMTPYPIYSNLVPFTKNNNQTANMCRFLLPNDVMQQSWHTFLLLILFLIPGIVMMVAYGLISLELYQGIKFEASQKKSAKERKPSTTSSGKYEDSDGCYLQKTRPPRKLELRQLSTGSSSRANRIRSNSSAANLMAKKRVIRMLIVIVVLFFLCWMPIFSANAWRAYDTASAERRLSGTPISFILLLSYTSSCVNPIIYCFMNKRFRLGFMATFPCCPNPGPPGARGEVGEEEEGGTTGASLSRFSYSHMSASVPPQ

[10] = target: cGMP-inhibited 3',5'-cyclic phosphodiesterase 3A (Homo sapiens, UniProt Q14432); type: functional
cGMP-inhibited 3',5'-cyclic phosphodiesterase 3A, sequence (Q14432 whole entry): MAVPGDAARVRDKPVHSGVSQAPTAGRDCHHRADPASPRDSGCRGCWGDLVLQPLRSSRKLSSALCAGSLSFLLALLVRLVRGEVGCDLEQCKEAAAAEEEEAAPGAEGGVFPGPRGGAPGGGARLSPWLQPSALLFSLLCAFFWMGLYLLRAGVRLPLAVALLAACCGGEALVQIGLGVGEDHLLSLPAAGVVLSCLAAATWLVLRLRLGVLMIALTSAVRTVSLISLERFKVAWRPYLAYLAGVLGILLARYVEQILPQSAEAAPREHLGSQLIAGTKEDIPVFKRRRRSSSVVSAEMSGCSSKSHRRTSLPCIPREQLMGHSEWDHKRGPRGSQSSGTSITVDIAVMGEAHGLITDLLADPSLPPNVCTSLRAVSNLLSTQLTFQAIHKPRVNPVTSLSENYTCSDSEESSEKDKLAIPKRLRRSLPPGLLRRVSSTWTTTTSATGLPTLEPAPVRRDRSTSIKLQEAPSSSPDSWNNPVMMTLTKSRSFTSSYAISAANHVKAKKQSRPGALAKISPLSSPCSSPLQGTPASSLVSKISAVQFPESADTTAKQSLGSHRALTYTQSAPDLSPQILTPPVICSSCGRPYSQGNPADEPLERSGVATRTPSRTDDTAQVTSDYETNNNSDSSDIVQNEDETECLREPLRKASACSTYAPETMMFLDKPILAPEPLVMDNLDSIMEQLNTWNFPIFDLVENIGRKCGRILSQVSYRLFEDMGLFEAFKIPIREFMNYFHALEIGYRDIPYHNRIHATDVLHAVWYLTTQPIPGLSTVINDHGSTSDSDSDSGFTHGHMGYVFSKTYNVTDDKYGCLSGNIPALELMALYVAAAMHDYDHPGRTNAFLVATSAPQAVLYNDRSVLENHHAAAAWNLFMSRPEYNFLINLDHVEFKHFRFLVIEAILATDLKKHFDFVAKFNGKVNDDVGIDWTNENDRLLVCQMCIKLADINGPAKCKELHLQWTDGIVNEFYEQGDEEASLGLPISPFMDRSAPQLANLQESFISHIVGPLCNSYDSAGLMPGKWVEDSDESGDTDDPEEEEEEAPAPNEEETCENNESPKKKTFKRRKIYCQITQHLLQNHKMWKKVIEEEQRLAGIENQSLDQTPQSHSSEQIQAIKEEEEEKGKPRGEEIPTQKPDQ

[11] = target: T5, Amine oxidase [flavin-containing] A (Homo sapiens, UniProt P21397); type: functional
T5 sequence (P21397 whole entry): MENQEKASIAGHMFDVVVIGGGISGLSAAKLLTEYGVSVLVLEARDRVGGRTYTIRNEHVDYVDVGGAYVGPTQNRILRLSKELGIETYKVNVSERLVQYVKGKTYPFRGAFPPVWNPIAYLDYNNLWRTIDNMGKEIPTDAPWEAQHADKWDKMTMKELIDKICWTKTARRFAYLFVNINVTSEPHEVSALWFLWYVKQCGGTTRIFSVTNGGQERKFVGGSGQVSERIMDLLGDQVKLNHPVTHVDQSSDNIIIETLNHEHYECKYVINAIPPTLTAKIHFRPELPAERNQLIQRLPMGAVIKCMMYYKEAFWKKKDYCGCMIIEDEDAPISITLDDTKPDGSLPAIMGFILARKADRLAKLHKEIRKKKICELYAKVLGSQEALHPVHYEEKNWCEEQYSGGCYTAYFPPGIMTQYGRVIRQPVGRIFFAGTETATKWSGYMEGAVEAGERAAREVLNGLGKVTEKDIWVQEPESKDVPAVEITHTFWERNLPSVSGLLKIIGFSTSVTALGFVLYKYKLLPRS

[12] = target: 5-hydroxytryptamine receptor 2B (Homo sapiens, UniProt P41595); type: functional, cell-based
5-hydroxytryptamine receptor 2B, sequence (P41595 whole entry): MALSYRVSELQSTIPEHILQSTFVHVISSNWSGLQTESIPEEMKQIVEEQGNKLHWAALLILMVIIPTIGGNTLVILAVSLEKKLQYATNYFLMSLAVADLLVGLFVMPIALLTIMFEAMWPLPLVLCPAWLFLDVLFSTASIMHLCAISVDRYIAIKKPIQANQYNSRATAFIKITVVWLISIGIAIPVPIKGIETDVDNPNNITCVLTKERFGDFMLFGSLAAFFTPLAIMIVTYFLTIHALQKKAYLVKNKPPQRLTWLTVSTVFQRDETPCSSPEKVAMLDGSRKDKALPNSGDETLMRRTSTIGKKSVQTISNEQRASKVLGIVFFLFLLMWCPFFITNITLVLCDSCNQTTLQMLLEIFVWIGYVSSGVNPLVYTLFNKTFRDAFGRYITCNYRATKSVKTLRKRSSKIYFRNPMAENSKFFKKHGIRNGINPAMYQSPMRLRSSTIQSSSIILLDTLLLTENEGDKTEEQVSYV
Note: assay procedure not described here.

Sodium-dependent noradrenaline transporter, sequence (P23975 whole entry): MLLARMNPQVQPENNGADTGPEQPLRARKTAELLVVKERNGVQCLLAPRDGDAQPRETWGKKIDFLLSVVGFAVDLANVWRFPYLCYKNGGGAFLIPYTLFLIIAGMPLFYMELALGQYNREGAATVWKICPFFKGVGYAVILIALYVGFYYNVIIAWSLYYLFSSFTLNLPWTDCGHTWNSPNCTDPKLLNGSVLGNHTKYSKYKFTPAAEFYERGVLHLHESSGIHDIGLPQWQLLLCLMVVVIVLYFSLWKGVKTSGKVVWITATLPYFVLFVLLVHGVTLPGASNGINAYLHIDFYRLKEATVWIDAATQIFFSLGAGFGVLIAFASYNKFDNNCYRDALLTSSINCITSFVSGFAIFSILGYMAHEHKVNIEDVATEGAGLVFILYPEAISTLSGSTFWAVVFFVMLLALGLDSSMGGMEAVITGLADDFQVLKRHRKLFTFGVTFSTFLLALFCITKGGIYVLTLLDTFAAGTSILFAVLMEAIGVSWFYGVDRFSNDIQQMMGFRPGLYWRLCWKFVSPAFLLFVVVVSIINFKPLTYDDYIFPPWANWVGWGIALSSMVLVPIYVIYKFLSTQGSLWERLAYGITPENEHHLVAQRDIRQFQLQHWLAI
3',5'-cyclic-AMP phosphodiesterase 4D, sequence (Q08499 whole entry): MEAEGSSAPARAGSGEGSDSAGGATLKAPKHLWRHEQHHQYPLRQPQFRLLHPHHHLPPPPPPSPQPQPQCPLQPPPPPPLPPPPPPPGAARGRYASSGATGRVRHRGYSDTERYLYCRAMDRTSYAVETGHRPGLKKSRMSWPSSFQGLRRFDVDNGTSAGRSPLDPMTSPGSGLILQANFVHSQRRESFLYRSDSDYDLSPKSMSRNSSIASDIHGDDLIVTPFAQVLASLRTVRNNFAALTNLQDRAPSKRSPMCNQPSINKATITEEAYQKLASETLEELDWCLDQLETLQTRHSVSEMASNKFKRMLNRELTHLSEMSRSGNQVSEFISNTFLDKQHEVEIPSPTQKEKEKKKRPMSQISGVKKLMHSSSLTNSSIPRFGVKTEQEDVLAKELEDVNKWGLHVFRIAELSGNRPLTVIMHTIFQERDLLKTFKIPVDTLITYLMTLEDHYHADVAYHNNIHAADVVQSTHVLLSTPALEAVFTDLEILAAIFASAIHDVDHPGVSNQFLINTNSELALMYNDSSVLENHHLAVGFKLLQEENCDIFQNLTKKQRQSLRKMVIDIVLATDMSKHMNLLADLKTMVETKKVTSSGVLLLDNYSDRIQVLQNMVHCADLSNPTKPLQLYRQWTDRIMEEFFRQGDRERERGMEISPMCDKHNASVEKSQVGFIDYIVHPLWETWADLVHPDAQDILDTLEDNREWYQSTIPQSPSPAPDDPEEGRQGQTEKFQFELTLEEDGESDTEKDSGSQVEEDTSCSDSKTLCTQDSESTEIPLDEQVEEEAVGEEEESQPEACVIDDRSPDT

Row | AC50 [1] [µM] | AC50 [2] [µM] | AC50 [3] [µM] | AC50 [4] [µM] | AC50 [5] [µM] | AC50 [6] [µM] | AC50 [7] [µM] | AC50 [8] [µM] | AC50 [9] [µM] | AC50 [10] [µM] | AC50 [11] [µM] | AC50 [12] [µM] | SMILES
1 | > 30 | > 30 | > 30 | > 30 | > 30 | > 30 | 5.9 | > 30 | > 30 | > 30 | > 30 | > 30 | COC(=O)N[C@H](C(=O)N1CCC[C@H]1c1nc(-c2ccc(-c3ccc(-c4c[nH]c([C@@H]5CCCN5C(=O)[C@@H](NC(=O)OC)C(C)C)n4)cc3)cc2)c[nH]1)C(C)C
2 | > 10 | > 10 | > 10 | > 30 | > 30 | > 30 | > 300 | > 10 | > 30 | > 10 | > 10 | > 10 | CCOC(=O)[C@H](CCc1ccccc1)N[C@@H](C)C(=O)N1CCC[C@H]1C(=O)O
3 | > 30 | 17 | > 30 | > 30 | > 30 | > 30 | > 300 | 1.2 | > 30 | > 30 | > 30 | > 30 | CC(=O)c1ccc2c(c1)N(CCCN1CCN(CCO)CC1)c1ccccc1S2 [ACETOPHENAZINE]
4 | > 30 | > 30 | > 10 | > 30 | > 30 | > 30 | > 300 | > 30 | > 30 | > 30 | > 30 | > 30 | N[C@@H](C(=O)N[C@@H]1C(=O)N2C(C(=O)O)=C(Cl)CS[C@H]12)c1ccccc1 [CEFACLOR ANHYDROUS]
5 | > 30 | 6.1 | > 30 | > 30 | > 30 | > 30 | > 300 | > 10 | > 30 | > 30 | – | – | COc1cc2c(cc1OC)C(=O)C(CC1CCN(Cc3ccccc3)CC1)C2 (stereo not drawn) [DONEPEZIL]
6 | > 30 | > 30 | > 30 | 23.2 | > 30 | > 30 | 2 | > 30 | > 30 | > 30 | 8.26 | – | CNC(=O)c1cc(Oc2ccc(NC(=O)Nc3ccc(Cl)c(C(F)(F)F)c3)cc2)ccn1 [SORAFENIB]

Further lines, the compound ahead of its results:

Row | SMILES | AC50 [1] [µM] | AC50 [2] [µM] | AC50 [3] [µM] | AC50 [4] [µM] | AC50 [5] [µM] | AC50 [6] [µM] | AC50 [7] [µM] | AC50 [8] [µM] | AC50 [9] [µM] | AC50 [10] [µM] | AC50 [11] [µM] | AC50 [12] [µM]
7 | CO/N=C(\C(=O)N[C@@H]1C(=O)N2C(C(=O)[O-])=C(C[N+]3(C)CCCC3)CS[C@H]12)c1csc(N)n1 | > 300 | > 300 | > 300 | > 300 | > 300 | > 300 | > 300 | > 300 | > 300 | > 300 | > 300 | > 300
8 | Nc1nc(N)c2nc(-c3ccccc3)c(N)nc2n1 | 24 | > 30 | > 30 | > 30 | > 30 | > 30 | > 300 | > 30 | > 30 | > 30 | > 30 | > 30
9 | C[C@H]1O[C@H](O[C@H]2[C@H](O)[C@@H](O)[C@@H](O[C@H]3[C@H](O)[C@@H](O)C(O)O[C@@H]3CO)O[C@@H]2CO)[C@H](O)[C@@H](O)[C@@H]1N[C@H]1C=C(CO)[C@@H](O)[C@H](O)[C@H]1O (stereo partly drawn) [ACARBOSE] | > 30 | > 30 | > 30 | > 30 | > 30 | > 30 | > 300 | > 30 | > 30 | > 30 | > 10 | > 30
10 | Oc1ncnc2[nH]ncc12 [ALLOPURINOL] | > 30 | > 10 | > 30 | > 30 | > 30 | > 30 | > 300 | > 10 | > 30 | > 30 | > 30 | > 10
11 | COC(=O)N[C@H](C(=O)N[C@@H](Cc1ccccc1)[C@@H](O)CN(Cc1ccc(-c2ccccn2)cc1)NC(=O)[C@@H](NC(=O)OC)C(C)(C)C)C(C)(C)C [ATAZANAVIR] | > 30 | > 30 | > 30 | > 30 | > 10 | 10.6 | 2 | > 10 | 17.6 | > 30 | > 10 | > 10
12 | CC(C)NCC(O)COc1ccc(COCCOC(C)C)cc1 (stereo not drawn) [BISOPROLOL] | > 30 | > 10 | > 30 | > 30 | > 30 | > 30 | > 300 | > 10 | > 30 | > 30 | > 10 | > 10
13 | CC(C)NNC(=O)c1ccncc1 [IPRONIAZID] | > 30 | > 30 | > 30 | > 30 | 0.45 | > 30 | > 300 | > 30 | > 30 | > 30 | – | > 30
14 | Cc1cccc(C)c1OCC(C)N (stereo not drawn) [MEXILETINE] | > 30 | > 30 | – | > 30 | > 10 | > 30 | > 300 | > 30 | > 30 | > 30 | 18 | > 30
